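GI50: concentration for 50% inhibition of growth. The concentration for full growth arrest is given as TGI.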
How the values were obtained:
Test in all cases: inhibition of tumour cell growth, NCI panel, 384-well format
786-0 renal = system: 786-0 renal
A498 renal = system: A498 renal
A549 NSCLC = system: A549 NSCLC
ACHN renal = system: ACHN renal
BT-549 breast = system: BT-549 breast
CAKI-1 renal = system: CAKI-1 renal
CCRF-CEM leukemia = system: CCRF-CEM leukemia
COLO 205 colon = system: COLO 205 colon
DU-145 prostate = system: DU-145 prostate
HCC-2998 colon = system: HCC-2998 colon
HCT-116 colon = system: HCT-116 colon
HCT-15 colon = system: HCT-15 colon
HL-60(TB) leukemia = system: HL-60(TB) leukemia
HOP-62 NSCLC = system: HOP-62 NSCLC
HOP-92 NSCLC = system: HOP-92 NSCLC
HT29 colon = system: HT29 colon
IGROV1 ovarian = system: IGROV1 ovarian
K-562 leukemia = system: K-562 leukemia
KM12 colon = system: KM12 colon
LOX IMVI melanoma = system: LOX IMVI melanoma
M14 melanoma = system: M14 melanoma
MALME-3M melanoma = system: MALME-3M melanoma
MCF7 breast = system: MCF7 breast
MDA-MB-231 breast = system: MDA-MB-231 breast
MDA-MB-435 melanoma = system: MDA-MB-435 melanoma
MDA-MB-468 breast = system: MDA-MB-468 breast
MOLT-4 leukemia = system: MOLT-4 leukemia
NCI-H226 lung = system: NCI-H226 lung
NCI-H23 lung = system: NCI-H23 lung
NCI-H322M lung = system: NCI-H322M lung
NCI-H460 NSCLC = system: NCI-H460 NSCLC
NCI-H522 lung = system: NCI-H522 lung
NCI/ADR-RES ovarian = system: NCI/ADR-RES ovarian
OVCAR-3 ovarian = system: OVCAR-3 ovarian
OVCAR-4 ovarian = system: OVCAR-4 ovarian
OVCAR-5 ovarian = system: OVCAR-5 ovarian
OVCAR-8 ovarian = system: OVCAR-8 ovarian
PC-3 prostate = system: PC-3 prostate
RPMI-8226 leukemia = system: RPMI-8226 leukemia
RXF 393 renal = system: RXF 393 renal
SF-268 CNS = system: SF-268 CNS
SF-295 CNS = system: SF-295 CNS
SF-539 CNS = system: SF-539 CNS
SK-MEL-2 melanoma = system: SK-MEL-2 melanoma
SK-MEL-28 melanoma = system: SK-MEL-28 melanoma
SK-MEL-5 melanoma = system: SK-MEL-5 melanoma
SK-OV-3 ovarian = system: SK-OV-3 ovarian
SN12C renal = system: SN12C renal
SNB-19 CNS = system: SNB-19 CNS
SR leukemia = system: SR leukemia
SW-620 colon = system: SW-620 colon
T-47D breast = system: T-47D breast
TK-10 renal = system: TK-10 renal
U251 glioblastoma = system: U251 glioblastoma
UACC-257 melanoma = system: UACC-257 melanoma
UACC-62 melanoma = system: UACC-62 melanoma
UO-31 renal = system: UO-31 renal

## CCOc1cc(C(C)(C)C)ccc1C1=N[C@@](C)(c2ccc(Cl)cc2)[C@@](C)(c2ccc(Cl)cc2)N1C(=O)N1CCN(CCCS(C)(=O)=O)CC1
786-0 renal
  GI50: 2.51 µM
  TGI: 7.15 µM
A498 renal
  GI50: 0.185 µM
  TGI: 1.37 µM
A549 NSCLC
  GI50: 0.405 µM
  TGI: 1.63 µM
ACHN renal
  GI50: 0.205 µM
  TGI: 1.21 µM
BT-549 breast
  GI50: 2.35 µM
  TGI: 5.59 µM
CAKI-1 renal
  GI50: 0.122 µM
  TGI: 1.47 µM
CCRF-CEM leukemia
  GI50: 2.12 µM
  TGI: 3.7 µM
COLO 205 colon
  GI50: 3.54 µM
  TGI: 9.6 µM
DU-145 prostate
  GI50: 3.16 µM
  TGI: 10.1 µM
HCC-2998 colon
  GI50: 1.47 µM
  TGI: 2.96 µM
HCT-116 colon
  GI50: 0.327 µM
  TGI: 1.61 µM
HCT-15 colon
  GI50: 1.9 µM
  TGI: 3.49 µM
HL-60(TB) leukemia
  GI50: 2.56 µM
  TGI: 4.04 µM
HOP-62 NSCLC
  GI50: 2.48 µM
  TGI: 6.59 µM
HOP-92 NSCLC
  GI50: 2.24 µM
  TGI: 4.68 µM
HT29 colon
  GI50: 1.87 µM
  TGI: 3.29 µM
IGROV1 ovarian
  GI50: 1.41 µM
  TGI: 3.32 µM
K-562 leukemia
  GI50: 2.94 µM
  TGI: 8.63 µM
KM12 colon
  GI50: 2.23 µM
  TGI: 4.77 µM
LOX IMVI melanoma
  GI50: 0.892 µM
  TGI: 2.12 µM
M14 melanoma
  GI50: 1.07 µM
  TGI: 3.24 µM
MALME-3M melanoma
  GI50: 0.753 µM
  TGI: 2.62 µM
MCF7 breast
  GI50: 0.411 µM
  TGI: 1.94 µM
MDA-MB-231 breast
  GI50: 2.66 µM
  TGI: 6.53 µM
MDA-MB-435 melanoma
  GI50: 3.94 µM
  TGI: 11.7 µM
MDA-MB-468 breast
  GI50: 2.04 µM
  TGI: 5.16 µM
MOLT-4 leukemia
  GI50: 0.0296 µM
  TGI: 0.0975 µM
NCI-H226 lung
  GI50: 0.108 µM
  TGI: 0.359 µM
NCI-H23 lung
  GI50: 5.59 µM
  TGI: 16.4 µM
NCI-H322M lung
  GI50: 2.28 µM
  TGI: 3.96 µM
NCI-H460 NSCLC
  GI50: 0.224 µM
  TGI: 1.3 µM
NCI-H522 lung
  GI50: 3.25 µM
  TGI: 8.97 µM
NCI/ADR-RES ovarian
  GI50: 2.37 µM
  TGI: 6.07 µM
OVCAR-3 ovarian
  GI50: 2.11 µM
  TGI: 3.76 µM
OVCAR-4 ovarian
  GI50: 2.53 µM
  TGI: 5.89 µM
OVCAR-5 ovarian
  GI50: 3.52 µM
  TGI: 10.8 µM
OVCAR-8 ovarian
  GI50: 3.56 µM
  TGI: 12.6 µM
PC-3 prostate
  GI50: 2.15 µM
  TGI: 4.43 µM
RPMI-8226 leukemia
  GI50: 1.82 µM
  TGI: 3.22 µM
RXF 393 renal
  GI50: 2.23 µM
  TGI: 4.55 µM
SF-268 CNS
  GI50: 2.65 µM
  TGI: 7.38 µM
SF-295 CNS
  GI50: 1.93 µM
  TGI: 3.85 µM
SF-539 CNS
  GI50: 2.03 µM
  TGI: 4.25 µM
SK-MEL-2 melanoma
  GI50: 2.26 µM
  TGI: 4.19 µM
SK-MEL-28 melanoma
  GI50: 3.86 µM
  TGI: 10.9 µM
SK-MEL-5 melanoma
  GI50: 1.39 µM
  TGI: 2.69 µM
SK-OV-3 ovarian
  GI50: 2.6 µM
  TGI: 7.36 µM
SN12C renal
  GI50: 2.4 µM
  TGI: 5.21 µM
SNB-19 CNS
  GI50: 3.18 µM
  TGI: 11.3 µM
SR leukemia
  GI50: 0.02 µM
  TGI: 0.0569 µM
SW-620 colon
  GI50: 4.24 µM
  TGI: 13.2 µM
T-47D breast
  GI50: 2.44 µM
  TGI: 8.59 µM
TK-10 renal
  GI50: 2.83 µM
  TGI: 8.93 µM
U251 glioblastoma
  GI50: 3.71 µM
  TGI: 11.9 µM
UACC-257 melanoma
  GI50: 1.44 µM
  TGI: 3.14 µM
UACC-62 melanoma
  GI50: 0.0678 µM
  TGI: 1.59 µM
UO-31 renal
  GI50: 0.0534 µM
  TGI: 0.205 µM
